Entries after “also recorded” stand apart in the source; their conditions may differ.
Assays:
[1] = Ex vivo biodistribution by ICP-MS; type: in vivo, athymic nude mice
Description: (§1) Cu-Pz-Gd(III) was examined as a contrast agent in vivo in an orthotopic breast tumor model in athymic nude mice. MDA-MB-231 breast tumor cells expressing mCherry fluorescent protein were implanted in the mammary fat pad of mice and tumors were allowed to grow to about 5 mm in diameter at which time mice were treated with 450 nmol (50 mg/kg) Cu-Pz-Gd(III) together with saline treated control mice (FIG. 3A).
(§2) Images were acquired at baseline, and 4, 24, and 48 hours after injection of 150 μL of imaging agent via the tail vein. One control animal was injected with saline; the remaining 9 animals were injected with 450 nmol Cu-Pz-Gd(III). Three animals were sacrificed after 4 hour, 24 hour, and 48 hour timepoints, respectively; the organs were collected for ICP-MS (described below) to measure biodistribution.
Mice were sacrificed by CO2 inhalation followed by cervical dislocation. Blood, urine (where possible), tumor, liver, kidney, spleen, heart, lungs, and samples of skin and skeletal muscle were collected for elemental analysis by ICP-MS as described below. In one additional mouse that was not treated with an imaging agent, the tumor was collected and fixed in 10% formalin for histological analysis. […]

[2] = test system: MDA-MB-231 orthotopic breast tumor; test: In vivo tumor MRI in orthotopic breast tumor model; design: species or system athymic nude mice
Description: as §1
In a separate experiment focusing only on short time points (0-225 min), groups of mice (n=3) were treated with Cu-Pz-Gd(III) (450 nmol, 50 mg/kg), DOTA-Gd(I I I) (900 nmol, 25 mg/kg), and saline as a negative control (FIG. 4). Mice were imaged continuously after tail vein injections. […] Regions of interest (ROIs) were defined outside the periphery of tumors, at the inner rim, and at the center.
MDA-MB-231 cells (1×10^6) expressing mCherry fluorescent protein were inoculated subcutaneously (1:1 v/v matrigel:PBS) on the right mammary fat pad. Cells were maintained in DMEM media supplemented with 10% FBS prior to inoculation. The athymic nude mice, Crl:NU(NCr)-Foxnl^nm, were purchased from Charles River, Portage at 5-6 weeks old and 16-18 gram were allowed to acclimate for 5 days. One week post inoculation, each animal was screened for mCherry fluorescence wavelength using the IVIS small animal fluorescence imaging system to verify presence of the tumor.
Mice were anesthetized in an induction chamber with 3% inhaled isoflurane in oxygen, then transferred to an imaging bed with circulating warm water heating system, MRI compatible respiratory monitoring (SA Instruments, Stony Brook, N.Y.) and 1-2% isoflurane delivered via nosecone to maintain a surgical plane of anesthesia with respiratory rate at 90-100 breaths/min Mice were imaged prone with the tumor centered in a 40 mm diameter quadrature volume coil (Bruker Biospec, Billerica, Mass.). An AutoPac automated positioning system was used to reproducibly center the animals in the MRI system.
Mice were positioned in the MRI scanner as described above and localizer images were acquired. T1 maps were acquired using a FAIR-RARE non-selective inversion recovery sequence with static TR (18,000 ms) and TE (6.1 ms), and variable TI (30.5, 100, 200, 300, 500, 600, 700, 800, 900, 1000, 1100, 1200, 1300, 1400, 1600, 2000, 2500, 3000, 3500, 4000, 4500, 5000, and 6000 ms). Imaging parameters were as follows: field of view (FOV)=40×20 mm^2, matrix size(MTX)=512×133 pixels, number of slices=1, slice thickness=1.0 mm, and 1 average (total scan time=5 m 26 s).
as §2
Mice were positioned in the MRI scanner as described above and localizer images were acquired. To improve signal to noise ratio, reduce respiratory artifacts, and increase tumor coverage, for this study we used a multi slice T1 map acquired using a variable repetition time saturation recovery sequence (RARE-VTR) with static TE (8.2 ms) and variable TR (175, 300, 600, 800, 1200, 2000, 4000 ms). Imaging parameters were as follows: FOV=10×7.5 mm, MTX=80×60, number of axial slices=5, slice thickness=1.0 mm, and 1 average (total scan time=6 min 48 sec). […]

Cu[Pz(C19H28N8O7Gd)2]. Pz=18,21-bis(2-(1H-1,2,3-triazole-4-yl) ethoxy)-tris-[1,4-dioxino[g,l,q](2R,3R)-2,3-dimethoxy-2,3-dimethyll 25H,27H-benzo[b]porphyrazine; C19H28N8O7Gd=N-methyl-2-aminoacetamide-4,7,10-tris(carboxymethyl)-1,4,7,10-tetraazacyclododecylgadolinium(III)) [Cu-Pz-Gd(III)]
route of clearance ([1]; biodistribution data by ICP-MS): rapidly cleared, primarily through the kidneys; also recorded: primarily through the kidneys and liver; also recorded: cleared through the kidneys and liver
tumor accumulation ([1]; ex vivo biodistribution study): accumulates in tumors
tumor T1 over time ([2]; 0-225 min after tail vein injection, Cu-Pz-Gd(III) 450 nmol (50 mg/kg), DOTA-Gd(III) 900 nmol (25 mg/kg)): persistent; also recorded: becomes progressively shorter; also recorded: steady accumulation of Cu-Pz-Gd(III) in tumor tissue with greater accumulation in the necrotic core; also recorded: decrease in T1 is much more persistent
MR contrast enhancement of tumors ([2]; 450 nmol (50 mg/kg), 4 hour timepoint): significant contrast enhancement
time at which T1 of tumor center is roughly equivalent to the rim ([2]; 450 nmol, 50 mg/kg): 135 min
average T1 of tumor regions ([2]; 50 mg/kg, relative to saline treated controls): decreased relative to saline-treated controls; also recorded: decreased relative to saline treated controls

Reference: patent publication US20160031909A1, “PORPHYRAZINE OPTICAL AND DUAL OPTICAL/ MR CONTRAST AND THERAPEUTIC AGENTS” (HOFFMAN/BARRETT, LLC, priority 2013, published 2016)
